Patent US20230115208A1, “RING-FUSED THIAZOLINO 2-PYRIDONES, METHODS FOR PREPARATION THEREOF AND THEIR USE IN THE TREATMENT AND/OR PREVENTION OF TUBERCULOSIS” (QURETECH BIO AB, priority 2016, published 2023)

Tested on: Mycobacterium tuberculosis Erdman
Test: Biofilm inhibition of Mycobacterium tuberculosis (ocular inspection)
Assay type: cell-based
Conditions: for inhibition at 50 µM / inhibition at 25 µM / inhibition at 100 µM / inhibition at 10 µM: biofilm inhibition, average of three or more measurements (100/50/0% scoring); for minimal effective concentration: concentration at which full biofilm inhibition took place, replicate determinations in one cell; for inhibition at 25 µM: read-out: Average % Inhibition at 25 μM; for inhibition at 10 µM: read-out: Average % Inhibition at 10 μM

Row | Compound | inhibition at 50 µM | minimal effective concentration | inhibition at 25 µM | inhibition at 100 µM | inhibition at 10 µM
1 | O=c1cc(Cc2cccc3ccccc23)c(C2CC2)c2n1CCS2 [Example 31, 7-Cyclopropyl-6-[(1-naphthyl)methyl]-1-thia-3a-aza-4-indanone] | 100% | – | – | – | –
2 | O=C(O)[C@@H]1CSc2c(C3CC3)c(Cc3cccc4ccccc34)c(CO)c(=O)n21 [Example 32, (3R)-7-Cyclopropyl-5-(hydroxymethyl)-6-[(1-naphthyl)methyl]-4-oxo-1-thia-3a-aza-3-indancarboxylic acid] | – | 50 µM | – | – | –
3 | N[C@@H]1CSc2c(C3CC3)c(Cc3cccc4ccccc34)cc(=O)n21 [Example 33, (3S)-3-Amino-7-cyclopropyl-6-[(1-naphthyl)methyl]-1-thia-3a-aza-4-indanone] | – | 25 µM | – | – | –
4 | O=C(O)[C@@H]1[C@@H](c2ccccc2)Sc2c(C3CC3)c(Cc3cccc4ccccc34)cc(=O)n21 [Example 34, (2R,3R)-7-Cyclopropyl-6-[(1-naphthyl)methyl]-4-oxo-2-phenyl-1-thia-3a-aza-3-indancarboxylic acid] | 25% | 30 µM | – | – | –
5 | CO[C@H]1Sc2c(C3CC3)c(Cc3cccc4ccccc34)cc(=O)n2[C@@H]1C(=O)O [Example 35, (2S,3R)-7-Cyclopropyl-2-methoxy-6-[(1-naphthyl)methyl]-4-oxo-1-thia-3a-aza-3-indancarboxylic acid] | – | 50 µM | 25% | 75% | –
6 | O=C(O)C1CSc2c(C3CC3)c(Cc3cccc(C(F)(F)F)c3)cc(=O)n21 (stereo not shown) [Example 36, 7-Cyclopropyl-4-oxo-6-{[m-(trifluoromethyl)phenyl]methyl}-1-thia-3a-aza-3-indancarboxylic acid] | 100% | – | 100% | – | 100%
7 | CCC(CO)NCCNC(CC)COC(=O)C1CSc2c(C3CC3)c(Cc3cccc4ccccc34)cc(=O)n21 (stereo not shown) [Example 37, 2-{2-[1-(Hydroxymethyl)propylamino]ethylamino}butyl 7-cyclopropyl-6-[(1-naphthyl)methyl]-4-oxo-1-thia-3a-aza-3-indancarboxylate] | 100% | – | 100% | – | 100%
8 | O=C(NNC(=O)C1CSc2c(C3CC3)c(Cc3cccc4ccccc34)cc(=O)n21)c1ccncc1 (stereo not shown) [Example 38, {7-Cyclopropyl-6-[(1-naphthyl)methyl]-4-oxo-1-thia-3a-aza-3-indanyl}(2-isonicotinoylhydrazino)formaldehyde] | 100% | 25 µM | 100% | – | 100%
9 | COc1ccc(Cc2cc(=O)n3c(c2C2CC2)SCC3C(=O)O)c2ccccc12 (stereo not shown) [Example 39, 7-Cyclopropyl-6-[(4-methoxy-1-naphthyl)methyl]-4-oxo-1-thia-3a-aza-3-indancarboxylic acid] | 100% | – | 100% | – | 50%
10 | CN(C)c1c(Cc2cccc3ccccc23)cc(=O)n2c1SC[C@H]2C(=O)O [Example 40, (3R)-7-(Dimethylamino)-6-[(1-naphthyl)methyl]-4-oxo-1-thia-3a-aza-3-indancarboxylic acid] | 50% | – | 100% | – | 50%
11 | O=C(O)[C@@H]1CSc2c(C3CC3)c(Cc3cccc4ccccc34)c(Br)c(=O)n21 [Example 41, (3R)-5-Bromo-7-cyclopropyl-6-[(1-naphthyl)methyl]-4-oxo-1-thia-3a-aza-3-indancarboxylic acid] | 88% | – | 62% | 100% | 25%
12 | O=C(O)C1CS(=O)(=O)c2c(C3CC3)c(Cc3cccc4ccccc34)cc(=O)n21 (stereo not shown) [Example 42, 7-Cyclopropyl-6-[(1-naphthyl)methyl]-1,1-dioxo-4-oxo-1-thia-3a-aza-3-indancarboxylic acid] | 12% | – | 12% | – | 50%
